Test results taken from ChEMBL document CHEMBL4311942, “Design of Trp-Rich Dodecapeptides with Broad-Spectrum Antimicrobial Potency and Membrane-Disruptive Mechanism” (J Med Chem, 2019).
Calls of active or inactive are those of the source. Where a SMILES comes first, the peptide text is derived from it.

Tests used:
Staphylococcus aureus [1] = experiment: Antibacterial activity against Staphylococcus aureus ATCC 25923 incubated for 18 to 24 hrs by broth microdilution method; type: functional
Staphylococcus aureus [2] = experiment: Antibacterial activity against Staphylococcus aureus ATCC 29213 incubated for 18 to 24 hrs by broth microdilution method; type: functional
Escherichia coli [3] = experiment: Antibacterial activity against Escherichia coli ATCC 25922 incubated for 18 to 24 hrs by broth microdilution method; type: functional
[4] = tested on: Staphylococcus epidermidis; experiment: Antibacterial activity against Staphylococcus epidermidis ATCC 12228 incubated for 18 to 24 hrs by broth microdilution method; type: functional
Escherichia coli [5] = experiment: Antibacterial activity against Escherichia coli 20411 clinical isolate incubated for 18 to 24 hrs by broth microdilution method; type: functional
Acinetobacter baumannii [6] = experiment: Antibacterial activity against Acinetobacter baumannii AB1901 clinical isolate incubated for 18 to 24 hrs by broth microdilution method; type: functional
Acinetobacter baumannii [7] = experiment: Antibacterial activity against Acinetobacter baumannii AB1902 clinical isolate incubated for 18 to 24 hrs by broth microdilution method; type: functional
Pseudomonas aeruginosa [8] = experiment: Antibacterial activity against Pseudomonas aeruginosa 25349 clinical isolate incubated for 18 to 24 hrs by broth microdilution method; type: functional
Erythrocyte = experiment: Haemolytic activity in human erythrocytes assessed as lowest concentration causing 5% hemolysis after 1 hr; type: ADME, cell-based
Escherichia coli [9] = experiment: Bactericidal activity against Escherichia coli ATCC 25922 assessed as reduction in bacterial growth at 2 times MIC after 60 mins by time kill assay relative to control; type: functional
Escherichia coli [10] = experiment: Bactericidal activity against Escherichia coli ATCC 25922 assessed as reduction in bacterial growth at 4 times MIC after 30 mins by time kill assay relative to control; type: functional
Escherichia coli [11] = experiment: Bactericidal activity against Escherichia coli ATCC 25922 at 2 times MIC after 120 mins by time kill assay relative to control; type: functional
Escherichia coli [12] = experiment: Bactericidal activity against Escherichia coli ATCC 25922 at 1 times MIC after 120 mins by time kill assay; type: functional, organism-based
Staphylococcus aureus [13] = experiment: Bactericidal activity against Staphylococcus aureus ATCC 29213 at 4 times MIC after 30 mins by time kill assay; type: functional, organism-based
Escherichia coli [14] = experiment: Antibacterial activity against Escherichia coli ATCC 25922 in presence of KCl by broth microdilution method; type: functional
Escherichia coli [15] = experiment: Antibacterial activity against Escherichia coli ATCC 25922 in presence of NH4Cl by broth microdilution method; type: functional
Escherichia coli [16] = experiment: Antibacterial activity against Escherichia coli ATCC 25922 in presence of CaCl2 by broth microdilution method; type: functional
Escherichia coli [17] = experiment: Antibacterial activity against Escherichia coli ATCC 25922 incubated for 2 hrs in presence of sodium phosphate buffer at pH 2 by broth microdilution method; type: functional; settings: ATCC 25922, 2 h
Staphylococcus aureus [18] = experiment: Antibacterial activity against Staphylococcus aureus ATCC 29213 in presence of KCl by broth microdilution method; type: functional
Staphylococcus aureus [19] = experiment: Antibacterial activity against Staphylococcus aureus ATCC 29213 in presence of NH4Cl by broth microdilution method; type: functional
Staphylococcus aureus [20] = experiment: Antibacterial activity against Staphylococcus aureus ATCC 29213 in presence of ZnCl2 by broth microdilution method; type: functional
Staphylococcus aureus [21] = experiment: Antibacterial activity against Staphylococcus aureus ATCC 29213 in presence of 25% serum by broth microdilution method; type: functional
Staphylococcus aureus [22] = experiment: Antibacterial activity against Staphylococcus aureus ATCC 29213 incubated for 2 hrs in presence of sodium phosphate buffer at pH 4 by broth microdilution method; type: functional; settings: ATCC 29213, 2 h
Staphylococcus aureus [23] = experiment: Antibacterial activity against Staphylococcus aureus ATCC 29213 incubated for 2 hrs in presence of sodium phosphate buffer at pH 10 by broth microdilution method; type: functional; settings: ATCC 29213, 2 h
Staphylococcus aureus [24] = experiment: Antibacterial activity against Staphylococcus aureus ATCC 29213 in presence of NaBH4 by broth microdilution method; type: functional
Lipopolysaccharide (LPS) = experiment: Displacement of BODIPY-TR-cadaverine from Escherichia coli O111:B4 LPS by spectrofluorophotometric method
Escherichia coli [25] = experiment: Induction of cytoplasmic membrane depolarization in Escherichia coli UB1005 by DiSC3-5 dye based fluorescence method; type: organism-based
Escherichia coli [26] = experiment: Inhibition of swimming motility of Escherichia coli ATCC 25922 after 16 hrs; type: functional, organism-based
[27] = Drug localization in Escherichia coli ATCC 25922 at 1 to 2 times MIC incubated for 1 hr using FITC-labelled peptides by propidium iodide-staining based regular fluorescent microscopy; type: ADME
[28] = Drug localization in Escherichia coli ATCC 25922 at 2 times MIC incubated for 1 hr using FITC-labelled peptides by propidium iodide-staining based super resolution fluorescent microscopy; type: ADME
Escherichia coli [29] = experiment: Antibacterial activity against Escherichia coli ATCC 25922 incubated for 18 to 24 hrs using FITC-labelled peptide by broth microdilution method; type: functional, organism-based
Staphylococcus aureus [30] = experiment: Antibacterial activity against Staphylococcus aureus ATCC 29213 incubated for 18 to 24 hrs using FITC-labelled peptide by broth microdilution method; type: functional, organism-based
Escherichia coli [31] = experiment: Induction of cell membrane disruption in Escherichia coli ATCC 25922 after 30 mins by propidium iodide-staining based flow cytometric analysis; type: organism-based
Escherichia coli [32] = experiment: Induction of cell membrane disruption in Escherichia coli ATCC 25922 assessed as propidium iodide-positive cells at 2 times MIC after 30 mins by flow cytometric analysis (reference value: 0.8%)
Escherichia coli [33] = experiment: Disruption of Escherichia coli ATCC 25922 cell membrane assessed as induction of arachnoid damage at 2 times MIC after 60 mins by field emission scanning electron microscopy; type: organism-based
Escherichia coli [34] = experiment: Induction of cell membrane disruption in Escherichia coli ATCC 25922 assessed as leakage of cellular contents at 1 to 2 times MIC after 60 mins by transmission electron microscopy; type: organism-based
Escherichia coli [35] = experiment: Induction of cell membrane disruption in Escherichia coli ATCC 25922 assessed as seperation of cytoplasmic membrane from outer membrane at 2 times MIC after 60 mins by transmission electron microscopy; type: organism-based
Staphylococcus aureus [36] = experiment: Induction of cell membrane disruption in Staphylococcus aureus ATCC 29213 assessed as collapsed membrane at 1 to 2 times MIC after 60 mins by transmission electron microscopy; type: organism-based
Staphylococcus aureus [37] = experiment: Induction of cell membrane disruption in Staphylococcus aureus ATCC 29213 assessed as leakage of cellular content at 1 to 2 times MIC after 60 mins by transmission electron microscopy; type: organism-based
Pseudomonas aeruginosa [38] = experiment: Antibacterial activity against Pseudomonas aeruginosa PAO1 at sub-MIC treated over 35 serial passages by resistant development assay; type: functional, organism-based

CC(C)C[C@H](NC(=O)[C@H](CCCNC(=N)N)NC(=O)[C@H](Cc1c[nH]c2ccccc12)NC(=O)[C@H](CCCNC(=N)N)NC(=O)[C@@H](NC(=O)[C@H](CCCCN)NC(=O)[C@H](Cc1c[nH]c2ccccc12)NC(=O)[C@H](CCCNC(=N)N)NC(=O)[C@H](CC(C)C)NC(=O)[C@H](CCCNC(=N)N)NC(=O)[C@@H](N)Cc1c[nH]c2ccccc12)[C@@H](C)O)C(=O)N[C@@H](CCCCN)C(N)=O (H-WRLRWKTRWRLK-NH2)
inactive: Activity (Escherichia coli [12])
4 µM: MIC (Staphylococcus aureus [2]) | MIC (Escherichia coli [3]) | MIC [4] | MIC (Acinetobacter baumannii [6]) | MIC (Acinetobacter baumannii [7]) | MIC (Escherichia coli [17]) | MIC (Staphylococcus aureus [19]) | MIC (Staphylococcus aureus [20]) | MIC (Staphylococcus aureus [22]) | MIC (Staphylococcus aureus [23]) | MIC (Staphylococcus aureus [24])
2 µM: MIC (Staphylococcus aureus [1]) | MIC (Escherichia coli [5]) | MIC (Escherichia coli [14]) | MIC (Escherichia coli [16]) | MIC (Staphylococcus aureus [18])
Active: Drug uptake [27] | Drug uptake [28]
100%: Activity (Escherichia coli [11])
active: Activity (Staphylococcus aureus [13]) | Activity (Lipopolysaccharide (LPS)) Dose-dependent effect | Activity (Escherichia coli [25]) Dose-dependent effect | inhibition (Escherichia coli [26]) Dose-dependent effect | Activity (Escherichia coli [29]) | Activity (Staphylococcus aureus [30]) | Activity (Escherichia coli [31]) Dose-dependent effect | Activity (Escherichia coli [33]) | Activity (Escherichia coli [34]) | Activity (Escherichia coli [35]) | Activity (Staphylococcus aureus [36]) | Activity (Staphylococcus aureus [37]) | Activity (Pseudomonas aeruginosa [38])
> 128 µM: MHC (Erythrocyte)
8 µM: MIC (Pseudomonas aeruginosa [8]) | MIC (Staphylococcus aureus [21])
1: log(activity) (Escherichia coli [9]) | log(activity) (Escherichia coli [10])
91.7%: Activity (Escherichia coli [32])
1 µM: MIC (Escherichia coli [15])
